Earlier results as cited in US20040208942A1, “Alpha lipoic acid based food supplement for increasing lean muscle mass and strength” (priority 2000, published 2004).

## O=C(O)CCCCC1CCSS1 (stereo not drawn) [α lipoic acid]
Type II diabetes
  body's utilization of blood sugar: significantly increase
Type II diabetics
  increase of the metabolic clearance rate of glucose: 50%
